Data as given in patent EP4563146A1 (IRBM S.P.A., priority 2023, dated 2025).
Where two headings read alike, the source gives them in different places.

Tests used:
ZIKV replicon = assay: ZIKV replication inhibition assay (NanoLuc replicon in Vero cells); details: 72 h, read-out: ZIKA Cell_Nanoluc
[1] = target: Japanese encephalitis virus (JEV)-NS2B-NS3 protease (Japanese encephalitis virus, UniProt P32886, DEL1469-1493); assay: JEV protease inhibition assay; assay type: biochemical
[2] = target: T1, West Nile Virus (WNV) NS2B-NS3 protease (West Nile virus, UniProt Q9Q6P4); assay: WNV protease inhibition assay; assay type: biochemical; details: Table 4; letter codes for IC50
T1 construct: NS2B1423-1470); purchased R&D 2907-SE-020
Source text: WNV protease inhibition assay

[3] = 600 nM enzyme, 10 µM Pyr-RTKR-AMC substrate, 25 °C, read-out: JEV - NS3 protease
[4] = Vero cells with stable ZIKV replicon, Nano-Glo readout

Molecule	EC50 (ZIKV replicon; Zika virus, Vero) [µM]	IC50 [1] [µM]	IC50 [2] [nM]	IC50 [1, 3] [µM]	EC50 (ZIKV replicon; [4]) [µM]
NC[C@H]1CC[C@@H]([n+]2cc([N-]C(=O)Nc3cc(NC(=O)Cc4ccccc4)cc(C(F)(F)F)c3)on2)CC1 [Example 59, (3-((1S,4S)-4-(Aminomethyl)cyclohexyl)-1,2,3-oxadiazol-3-ium-5-yl)((3-(2-phenyl-acetamido)-5-(trifluoromethyl)phenyl)-carbamoyl)amide]	1 to 20	1 to 20			
O=C(Cc1ccccc1)Nc1cc(NC(=O)[N-]c2c[n+]([C@H]3CC[C@@H](CN4C(=O)c5ccccc5C4=O)CC3)no2)cc(C(F)(F)F)c1 [Example 60, (3-((1S,4S)-4-((1,3-Dioxoisoindolin-2-yl)methyl)cyclohexyl)-1,2,3-oxadiazol-3-ium-5-yl)((3-(2-phenylacetamido)-5-(trifluoromethyl)-phenyl)carbamoyl)amide]	1 to 20	1 to 20			
CN(C)C[C@H]1CC[C@@H]([n+]2cc([N-]C(=O)Nc3cc(NC(=O)Cc4ccccc4)cc(C(F)(F)F)c3)on2)CC1 [Example 61, (3-((1S,4S)- -4-((Dimethylamino)methyl)cyclohexyl)-1,2,3-oxadiazol-3-ium-5-yl)((3-(2-phenylacetamido)-5-(trifluoromethyl)phenyl)carbamoyl)amide]	1 to 20	1 to 20			
CC(=O)NC[C@H]1CC[C@@H]([n+]2cc([N-]C(=O)Nc3cc(NC(=O)Cc4ccccc4)cc(C(F)(F)F)c3)on2)CC1 [Example 62, (3-((1S,4S)-4-(Acetamidomethyl)cyclohexyl)-1,2,3-oxadiazol-3-ium-5-yl)((3-(2-phenylacetamido)-5-(trifluoromethyl)phenyl)carbamoyl)amide]	> 20	1 to 20			
N[C@H]1CC[C@@H]([n+]2cc([N-]C(=O)Nc3cc(NC(=O)Cc4ccccc4)cc(C(F)(F)F)c3)on2)CC1 [Example 91, (3-((1S,4S)-4-Aminocyclohexyl)-1,2,3-oxadiazol-3-ium-5-yl)((3-(2-phenylacetamido)-5-(trifluoromethyl)phenyl)carbamoyl)amide]	> 20	1 to 20			
N[C@H]1CC[C@H]([n+]2cc([N-]C(=O)Nc3cc(NC(=O)Cc4ccccc4)cc(C(F)(F)F)c3)on2)CC1 [Example 92, (3-((1R,4R)-4-Aminocyclohexyl)-1,2,3-oxadiazol-3-ium-5-yl)((3-(2-phenylacetamido)-5-(trifluoromethyl)phenyl)carbamoyl)amide]	> 20	1 to 20			
NC[C@H]1CC[C@H]([n+]2cc([N-]C(=O)Nc3cc(NC(=O)Cc4ccccc4)cc(C(F)(F)F)c3)on2)CC1 [Example 93, (3-((1R,4R)-4-(Aminomethyl)cyclohexyl)-1,2,3-oxadiazol-3-ium-5-yl)((3-(2-phenyl-acetamido)-5-(trifluoromethyl)phenyl)-carbamoyl)amide]	1 to 20	0.1 to 1			
CN(C)[C@H]1CC[C@@H]([n+]2cc([N-]C(=O)Nc3cc(NC(=O)Cc4ccccc4)cc(C(F)(F)F)c3)on2)CC1 [Example 95, (3-((1S,4S)-4-(Dimethylamino)cyclohexyl)-1,2,3-oxadiazol-3-ium-5-yl)((3-(2-phenylacetamido)-5-(trifluoromethyl)phenyl)-carbamoyl)amide]	1 to 20	1 to 20			
CN(C)[C@H]1CC[C@H]([n+]2cc([N-]C(=O)Nc3cc(NC(=O)Cc4ccccc4)cc(C(F)(F)F)c3)on2)CC1 [Example 96, (3-((1R,4R)-4-(dimethylamino)cyclohexyl)-1,2,3-oxadiazol-3-ium-5-yl)((3-(2-phenylacetamido)-5-(trifluoromethyl)phenyl)-carbamoyl)amide]	1 to 20	1 to 20			
NC[C@H]1CC[C@@H]([n+]2cc([N-]C(=O)Nc3cc(N4CCC(c5ccccc5)C4=O)cc(C(F)(F)F)c3)on2)CC1 (stereo partly drawn) [Example 119, (3-((1S,4S)-4-(Aminomethyl)cyclohexyl)-1,2,3-oxadiazol-3-ium-5-yl)((3-(2-oxo-3-phenylpyrrolidin-1-yl)-5-(trifluoromethyl)phenyl)-carbamoyl)amide]	1 to 20	1 to 20			
O=C([N-]c1c[n+]([C@H]2CC[C@@H](CNCC(F)(F)F)CC2)no1)Nc1cc(N2CCC(c3ccccc3)C2=O)cc(C(F)(F)F)c1 (stereo partly drawn) [Example 135, ((3-(2-Oxo-3-phenylpyrrolidin-1-yl)-5-(trifluoromethyl)phenyl)carbamoyl)(3-((1S,4S)-4-(((2,2,2-trifluoroethyl)amino)methyl)-cyclohexyl)-1,2,3-oxadiazol-3-ium-5-yl)amide]	1 to 20	> 20			
CN(C)C[C@H]1CC[C@@H]([n+]2cc([N-]C(=O)Nc3cc(N4CCC(c5ccccc5)C4=O)cc(C(F)(F)F)c3)on2)CC1 (stereo partly drawn) [Example 138, (3-((1S,4S)-4-((Dimethylamino)methyl)-cyclohexyl)-1,2,3-oxadiazol-3-ium-5-yl)((3-(2-oxo-3-phenylpyrrolidin-1-yl)-5-(trifluoromethyl)-phenyl)carbamoyl)amide]	1 to 20	1 to 20			
O=C([N-]c1c[n+](C[C@H]2CC[C@@H](CNCC(F)(F)F)CC2)no1)Nc1cc(N2CCC(c3ccccc3)C2=O)cc(C(F)(F)F)c1 (stereo partly drawn) [Example 139, ((3-(2-Oxo-3-phenylpyrrolidin-1-yl)-5-(trifluoromethyl)phenyl)carbamoyl)(3-(((1s,4s)-4-(((2,2,2-trifluoroethyl)amino)methyl)cyclohexyl)-methyl)-1,2,3-oxadiazol-3-ium-5-yl)amide]	1 to 20	> 20			
N[C@H]1CC[C@H](C[n+]2cc([N-]C(=O)Nc3cc(N4CC[C@H](c5ccccc5)C4=O)cc(C(F)(F)F)c3)on2)CC1 [Example 143, (3-(((1R,4R)-4-Aminocyclohexyl)methyl)-1,2,3-oxadiazol-3-ium-5-yl)((3-((R)-2-oxo-3-phenylpyrrolidin-1-yl)-5-(trifluoromethyl)-phenyl)carbamoyl)amide]	> 20	1 to 20			
O=C([N-]c1c[n+](C[C@H]2CC[C@H](NCC(F)(F)F)CC2)no1)Nc1cc(N2CC[C@H](c3ccccc3)C2=O)cc(C(F)(F)F)c1 [Example 144, ((3-((R)-2-Oxo-3-phenylpyrrolidin-1-yl)-5-(trifluoromethyl)phenyl)carbamoyl)(3-(((1r,4r)-4-((2,2,2-trifluoroethyl)amino)cyclohexyl)-methyl)-1,2,3-oxadiazol-3-ium-5-yl)amide]	0.1 to 1	1 to 20			
CN(C)C[C@H]1CC[C@H]([n+]2cc([N-]C(=O)Nc3cc(NC(=O)Cc4ccccc4)cc(C(F)(F)F)c3)on2)CC1 [Example 147, (3-((1R,4R)-4-((Dimethylamino)methyl)-cyclohexyl)-1,2,3-oxadiazol-3-ium-5-yl)((3-(2-phenylacetamido)-5-(trifluoromethyl)phenyl)-carbamoyl)amide]	1 to 20		< 100	1 to 20	
CN(C)C[C@H]1CC[C@H]([n+]2cc([N-]C(=O)Nc3cc(NC(=O)Cc4ccc5c(c4)OCO5)cc(C(F)(F)F)c3)on2)CC1 [Example 154, ((3-(2-(Benzo[d][1,3]dioxol-5-yl)acetamido)-5-(trifluoromethyl)phenyl)carbamoyl)(3-((1R,4R)-4-((dimethylamino)methyl)cyclohexyl)-1,2,3-oxadiazol-3-ium-5-yl)amide]			1000 to 20000	> 20	> 20
((3-Cyclopropyl-5-(2-(phenylsulfonyl)-acetamido)phenyl)carbamoyl)(3-((1R,4R)-4-((dimethylamino)methyl)cyclohexyl)-1,2,3-oxadiazol-3-ium-5-yl)amide [Example 150]			< 100	1 to 20	1 to 20
